Assay: Pharmacokinetic test in SD rats
Format: in vivo
Conditions: for AUC(0-inf) / AUC(0-t) / Cmax / MRT last / Tmax: rat, plasma, po; for AUC(0-inf) / AUC(0-t) / Cmax / MRT last / Tmax / Plasma concentration: 10 mg/kg; for Plasma concentration: 10 mg/kg p.o., listed as compound represented by formula I (amorphous form)
Experimental: Experimental animals: healthy adult SD rats, male, 6 in total, divided into two groups, with 3 rats per group, aged 6-8 weeks; and body weight approximately 200-300 g. The rats were fed in rat cages, and fasted (for at least 10 hours) with free access to water one day before the experiment. On the day of experiment, the rats were weighed and marked at the tail respectively. Blank blood samples were collected respectively before drug administration. The blood samples were collected via the tail vein. Drug administration method: intragastric gavage (p.o.): intragastric gavage with drug suspension; preparation of drug suspension: approximately 10 mg of test sample was accurately weighed, dissolved in 5% DMSO (calculated proportion), and vortexed with 10% solutol HS-15 and 85% saline to obtain a suspension with a concentration of 1.0 mg/mL; and the suspension was freshly prepared before use.
Sample collection: the rats were administered a single oral dose of 10mg/kg via intragastric gavage (p.o.). Timing was started immediately after the administration was completed, and blood samples were collected at 0.5, 1, 2, 4, 6, 8, 12 and 24 hours after administration. A volume of 0.1mL of whole blood was collected into EDTA-Na2 anticoagulant tubes, mixed by inverting 3-4 times, centrifuged at 10000 g for 5 minutes at 4°C to separate the plasma, and then the plasma was stored at -80 °C until testing. The blood samples were collected via the tail vein.
Sample preparation: 1) the samples were thawed, and 15 µL of unknown plasma samples before or after administration, standard series solutions, and single blank and double blank samples were respectively transferred into 1.5 mL centrifuge tubes. 2) 15 µL of protein precipitant (methanol) and 400 µL of internal standard solution (verapamil in methanol, approximately 10 ng/mL) were added to each sample sequentially, vortexed for 2 minutes, and then centrifuged at 4°C and 12000 rpm for 10 minutes. 3) The supernatant was collected for LC-MS/MS detection.
Analytical conditions: liquid chromatography conditions: liquid chromatography system: Shimadzu Nexera X2; chromatographic column: Agilent ZORBAX XDB-C18 3.5 (2.1 × 50 mm); column temperature: 35°C; mobile phase: A-5% acetonitrile (0.1% formic acid in water), B-95% acetonitrile (0.1% formic acid in water); injection volume: 3 µL; and
flow rate: 0.5 mL/min. Gradient elution was employed, and an elution program can be seen in the table below.
Mass spectrometry conditions: mass spectrometric analysis was carried out using an electrospray ionization (ESI) source in a positive ion mode with multiple reaction monitoring (MRM). The mass spectrometer ion source parameters and compound detection parameters can be seen in the table below.
PK parameter processing: pharmacokinetic (PK) parameters were calculated according to a plasma concentration from individual plasma concentration and corresponding sampling time data using Phoenix WinNonlin software with a non-compartmental model. (1) The PK parameters used for pharmacokinetic evaluation included: Cmax, AUC0-t, AUC0-∞, Tmax and t1/2.
(2) The parameters used for bioequivalence evaluation: Cmax, AUC0-t and AUC0-∞ were used for the bioequivalence evaluation.
Cmax: maximum plasma concentration measured within specified period, presented as measured value.
Tmax: time measured to reach maximum plasma concentration, presented as measured value. If the maximum value occurred at more than one time point, Tmax was defined as the first time point at which this value was observed.
AUC0-t: area under plasma concentration-time curve from 0 to last time point t.
AUC0-∞: area under plasma concentration-time curve from 0 to infinity. Ct was the last measured concentration, and λz was the terminal elimination rate constant. AUC0−∞ = AUC0−t + (Ct)/(λz)AUC0−∞ = AUC0−t + (Ct)/(λz) [formula]
t1/2: elimination or terminal half-life, estimated by ln2/λz.

[1] = Mean of rats No. 1-3, intragastric gavage at 10 mg/kg
[2] = rat No. 1, intragastric gavage at 10 mg/kg
[3] = rat No. 2, intragastric gavage at 10 mg/kg
[4] = rat No. 3, intragastric gavage at 10 mg/kg
[5] = rats, intragastric gavage 10 mg/kg, Mean

C[C@@H](Nc1ccn2ncc(C3=NOC(C)(C)N3)c2n1)c1cc(F)cc(F)c1F [amorphous form]
HL_ [1]: 8.72 h | HL_ [2]: 6.05 h | HL_ [3]: 17.2 h | HL_ [4]: 2.93 h | AUC(0-inf) [1]: 1560 ng·h/mL | AUC(0-t) [1]: 1080 ng·h/mL | Cmax [1]: 151 ng/mL | MRT last [1]: 7.55 h | Tmax [1]: 6 h | AUC(0-inf) [2]: 982 ng·h/mL | AUC(0-t) [2]: 894 ng·h/mL | Cmax [2]: 87.1 ng/mL | MRT last [2]: 7.84 h | Tmax [2]: 8 h | AUC(0-inf) [3]: 3200 ng·h/mL | AUC(0-t) [3]: 1910 ng·h/mL | Cmax [3]: 307 ng/mL | MRT last [3]: 9.26 h | Tmax [3]: 4 h | AUC(0-inf) [4]: 487 ng·h/mL | AUC(0-t) [4]: 428 ng·h/mL | Cmax [4]: 58.3 ng/mL | MRT last [4]: 5.56 h | Tmax [4]: 6 h | AUC(0-t) [5]: 1080 ng·h/mL | Cmax [5]: 151 ng/mL | Plasma concentration (rats, 0.5 h, Mean): 41.0 ng/mL | Plasma concentration (rats, 0.5 h, No. 1): 44.5 ng/mL | Plasma concentration (rats, 0.5 h, No. 2): 49.0 ng/mL | Plasma concentration (rats, 0.5 h, No. 3): 29.4 ng/mL | Plasma concentration (rats, 1 h, Mean): 22.5 ng/mL | Plasma concentration (rats, 1 h, No. 1): 20.8 ng/mL | Plasma concentration (rats, 1 h, No. 2): 21.5 ng/mL | Plasma concentration (rats, 1 h, No. 3): 25.3 ng/mL | Plasma concentration (rats, 2 h, Mean): 56.2 ng/mL | Plasma concentration (rats, 2 h, No. 1): 64.1 ng/mL | Plasma concentration (rats, 2 h, No. 2): 71.2 ng/mL | Plasma concentration (rats, 2 h, No. 3): 33.2 ng/mL | Plasma concentration (rats, 4 h, Mean): 142 ng/mL | Plasma concentration (rats, 4 h, No. 1): 71.7 ng/mL | Plasma concentration (rats, 4 h, No. 3): 47.9 ng/mL | Plasma concentration (rats, 6 h, Mean): 86.2 ng/mL | Plasma concentration (rats, 6 h, No. 1): 72.4 ng/mL | Plasma concentration (rats, 6 h, No. 2): 128 ng/mL | Plasma concentration (rats, 6 h, No. 3): 58.3 ng/mL | Plasma concentration (rats, 8 h, Mean): 68.7 ng/mL | Plasma concentration (rats, 8 h, No. 1): 87.1 ng/mL | Plasma concentration (rats, 8 h, No. 2): 84.3 ng/mL | Plasma concentration (rats, 8 h, No. 3): 34.7 ng/mL | Plasma concentration (rats, 12 h, Mean): 24.4 ng/mL | Plasma concentration (rats, 12 h, No. 1): 18.6 ng/mL | Plasma concentration (rats, 12 h, No. 2): 40.6 ng/mL | Plasma concentration (rats, 12 h, No. 3): 14.0 ng/mL | Plasma concentration (rats, 24 h, Mean): 31.2 ng/mL | Plasma concentration (rats, 24 h, No. 1): 10.2 ng/mL | Plasma concentration (rats, 24 h, No. 2): 52.2 ng/mL

Source: patent publication EP4813989A1, “CRYSTAL, PHARMACEUTICAL COMPOSITION, PREPARATION METHOD THEREFOR, AND USE THEREOF” (TYK Medicines, Inc., priority 2023, dated 2025)
